# Measurements as given in patent publication US20100210649A1, “PYRIDAZINONES AND FURAN-CONTAINING COMPOUNDS” (Sloan-Kettering Institute for Cancer Research, priority 2006, published 2010).
# Where two headings read alike, the source gives them in different places.
# What was measured:
# PC9 = assay: Dose response study (Alamar Blue), PC9; format: cell-based; conditions: Homo sapiens, read-out: IC50 PC9
# Experimental: (§1) Dose response studies against 34 compounds from the pyridazinone and phenylfuran-carboxamide class were conducted. […] In addition, Tarceva was included in these dose response studies.
# (§2) The dose response studies were done with the following standard procedure. First, the cells were counted and dispensed at 250 cells/well into 384-well microplates with compound. The cells were incubated for 48 hours at 37 C to complete treatment, and then alamar blue was added for an additional 48 hours. Finally, alamar blue reduction was measured and the data was loaded into ORIS, our data screening acquisition platform.
# in vitro = conditions: human
# H460 = assay: Dose response study (Alamar Blue), H460; format: cell-based; conditions: Homo sapiens, read-out: IC50 H460
# Experimental: as §1, §2
# H1118 = assay: Non Small Cell Lung Cancer proliferation assay (Alamar Blue reduction), H1118; format: cell-based
# H1734 = assay: Non Small Cell Lung Cancer proliferation assay (Alamar Blue reduction), H1734; format: cell-based, human; conditions: Homo sapiens
# Method in brief: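 Viability after 48 hours of drug exposure at 37° C is scored by Alamar Blue reduction over a subsequent 48 hours, read at 530/590 nm. DMSO-only wells (1% final) define the high control.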
# A549 = assay: Dose response study (Alamar Blue), A549; format: cell-based; conditions: Homo sapiens, read-out: IC50 A549
# Experimental: as §1, §2
# [1] = PC-9, PC9, 12 point doubling dilution 10 uM to 5 nM, 48 h treatment, alamar blue additional 48 h
# [2] = NCI-H460, H460, 12 point doubling dilution 10 uM to 5 nM, 48 h treatment, alamar blue additional 48 h
# [3] = Homo sapiens; H1118; 12 point doubling dilution 10 uM to 5 nM; 48 h treatment, alamar blue additional 48 h; read-out: IC50 H1118
# [4] = NCI-H1734, H1734, 12 point doubling dilution 10 uM to 5 nM, 48 h treatment, alamar blue additional 48 h, read-out: IC50 H1734
# [5] = NCI-H1734, read-out: Dose Response (uM) H1734
# [6] = A549, 12 point doubling dilution 10 uM to 5 nM, 48 h treatment, alamar blue additional 48 h
# [7] = Homo sapiens; read-out: Dose Response (uM) H1118
SMILES,IC50 (PC9; [1]),IC50 at 72 h (in vitro; CytoTox (uM) NHBE),IC50 at 72 h (in vitro; CytoTox (uM) WI-38),IC50 (H460; [2]),IC50 (H1118; [3]),IC50 (H1734; [4]),IC50 (H1734; [5]),IC50 (A549; [6]),IC50 (H1118; [7]),"IC50 (PC9; PC-9, 48 h)","IC50 (H460; NCI-H460, 48 h)","IC50 (H1118; Homo sapiens, 48 h, read-out: IC50 H1118)","IC50 (H1118; Homo sapiens, read-out: Dose Response (uM) H1118)","IC50 (H1734; NCI-H1734, 48 h, H1734, 12 point doubling dilution 10 uM to 5 nM, 48 h treatment, alamar blue additional 48 h, read-out: IC50 H1734)","IC50 (H1734; NCI-H1734, dose response 10 M to 5 nM, IC50, read-out: Dose Response (uM) H1734)","IC50 (A549; A549, 48 h)"
COc1cccc(-n2ncc(Cl)c(Cl)c2=O)c1 [compound 267061],850 nM,1.7 µM,3.91 µM,1630 nM,0.4 µM,3.04 µM,2.41 µM,1760 nM,,,,,,,,
Cc1cccc(-n2ncc(Br)c(Br)c2=O)c1 [compound 267071],860 nM,1.61 µM,2.61 µM,1430 nM,0.41 µM,1.72 µM,0.8 µM,1620 nM,,,,,,,,
O=c1c(Cl)c(Cl)cnn1-c1cccc(C(F)(F)F)c1 [compound 176729],900 nM,2.76 µM,3.42 µM,1260 nM,0.31 µM,1.22 µM,0.61 µM,1190 nM,0.2 µM,,,,,,,
Cc1cccc(-n2ncc(I)c(I)c2=O)c1 [compound 267085],2240 nM,2.88 µM,5.51 µM,3490 nM,1.03 µM,2.99 µM,1.94 µM,3270 nM,,,,,,,,
COCCOc1cccc(-n2ncc(Br)c(Br)c2=O)c1 [compound 267084],680 nM,2.56 µM,2.33 µM,890 nM,0.23 µM,1.5 µM,1.63 µM,840 nM,,,,,,,,
COc1nn(-c2cccc(C)c2)c(=O)c(Cl)c1Cl [compound 257028],2400 nM,5.24 µM,7.52 µM,5230 nM,1.1 µM,3.87 µM,2.42 µM,3760 nM,,,,,,,,
O=c1c(Cl)c(Cl)cnn1-c1ccccn1 [compound 267090],470 nM,1.43 µM,1.19 µM,790 nM,0.15 µM,2.47 µM,1.1 µM,540 nM,,,,,,,,
O=c1c(Br)c(Br)cnn1-c1cccc(C(F)(F)F)c1 [compound 267072],2590 nM,1.43 µM,2.17 µM,2760 nM,1.21 µM,3.19 µM,0.51 µM,3420 nM,,,,,,,,
Cc1ccc(-n2ncc(Cl)c(Cl)c2=O)cc1Cl [compound 267070],> 10000 nM,> 10 µM,> 10 µM,> 10000 nM,> 10 µM,> 10 µM,2.69 µM,> 10000 nM,,,,,,,,
Cc1ccc(-n2ncc(Cl)c(Cl)c2=O)cc1 [compound 257016],1130 nM,3.29 µM,6.43 µM,2550 nM,0.54 µM,3.22 µM,3.37 µM,2630 nM,0.38 µM,,,,,,,
CCCCc1cccc(-n2ncc(Cl)c(Cl)c2=O)c1 [compound 267063],8890 nM,5.34 µM,> 10 µM,> 10000 nM,6.41 µM,> 10 µM,3.25 µM,> 10000 nM,,,,,,,,
Cc1cc(-n2ncc(Cl)c(Cl)c2=O)ccc1Cl [compound 267065],> 10000 nM,> 10 µM,> 10 µM,> 10000 nM,> 10 µM,> 10 µM,> 10 µM,> 10000 nM,,,,,,,,
Cc1ccc(-n2ncc(Cl)c(Cl)c2=O)cc1C [compound 257019],1980 nM,3.24 µM,7.02 µM,4090 nM,0.94 µM,4.65 µM,2.01 µM,4200 nM,0.29 µM,,,,,,,
O=c1c(Cl)c(Cl)cnn1-c1ccccc1 [compound 257014],,3.29 µM,6.93 µM,,,,,,,830 nM,2010 nM,0.45 µM,0.27 µM,2.28 µM,4.11 µM,1680 nM
O=c1c(Cl)c(Cl)cnn1Cc1ccccc1 [compound 267069],6210 nM,7.32 µM,> 10 µM,> 10000 nM,3.21 µM,> 10 µM,6.86 µM,7390 nM,,,,,,,,
O=c1c(Cl)c(Cl)cnn1-c1ccc(Cl)cc1Cl [compound 267077],> 10000 nM,1.1 µM,1.74 µM,> 10000 nM,3.73 µM,> 10 µM,0.52 µM,> 10000 nM,,,,,,,,
NCCCOc1cccc(-n2ncc(Br)c(Br)c2=O)c1 [compound 273634],970 nM,2.94 µM,4.53 µM,1470 nM,0.57 µM,1.23 µM,0.93 µM,1650 nM,,,,,,,,
O=c1c(Cl)c(Cl)cnn1-c1ccc2c(c1)CCC2 [compound 267066],5870 nM,1.74 µM,5.37 µM,6560 nM,2.73 µM,8.85 µM,1.45 µM,7520 nM,,,,,,,,
O=c1c(Cl)c(Cl)cnn1-c1ccc(C(F)(F)F)cc1 [compound 267060],3490 nM,3.44 µM,> 10 µM,4260 nM,1.66 µM,5.23 µM,1.6 µM,5310 nM,,,,,,,,
Cc1cc(C)cc(-n2ncc(Cl)c(Cl)c2=O)c1 [compound 257020],1550 nM,3.18 µM,6.78 µM,2930 nM,0.58 µM,2.62 µM,1.83 µM,2870 nM,0.34 µM,,,,,,,
